Experimental data as given in patent EP3381898A1, “SYMMETRICAL TRIS-ARYL-AMIDE DERIVATIVES AND THEIR USE AS ANTI-HEPARANASE” (priority 2017, dated 2018).
Where two headings read alike, the source gives them in different places.

Experiments:
[1] = system: U2OS (human osteosarcoma); experiment: SRB Cell Cytotoxicity Assay (cell proliferation, 72h); type: cell-based; settings: 72 h, read-out: Concentration (µM) of test compounds at which the cell growth is inhibited by 50 %. U2OS
Method: (§1) SRB Cell Cytotoxicity Assay is an assay based upon the quantitative staining of cellular proteins by sulforhodamine B (SRB). This assay can be used for high-throughput drug screening ([…], Nature Protocol. 2006, 1, 112). Sulforhodamine B is an anionic aminoxanthene dye that forms an electrostatic complex with the basic amino acid residues of proteins under moderately acid conditions, which provides a sensitive linear response. […] Inhibition of cell proliferation was then measured by the classical colorimetric SRB Cell Cytotoxicity assay. Absorbance was measured by spectrophotometer at a wavelength of 510 nm and cell proliferation was determined as percent with respect to control cells (cells treated with the vehicle alone). EC50 values were then determined by GraphPad Prism.

[2] = system: U87MG (human glioblastoma astrocytoma); experiment: as above; type: cell-based; settings: U-87 MG, 72 h, read-out: Concentration (µM) of test compounds at which the cell growth is inhibited by 50 %. U87MG
Method: as §1

[3] = system: HT1080 (human fibrosarcoma); experiment: as above; type: cell-based; settings: HT-1080, 72 h, read-out: Concentration (µM) of test compounds at which the cell growth is inhibited by 50 %. HT1080
Method: as §1

heparanase = biological target: T1, heparanase (Homo sapiens, UniProt Q9Y251); experiment: AGA*IA assay: heparanase-catalyzed fondaparinux cleavage, colorimetric (WST-1); type: biochemical
T1 sequence (Q9Y251 158-543 limits assumed): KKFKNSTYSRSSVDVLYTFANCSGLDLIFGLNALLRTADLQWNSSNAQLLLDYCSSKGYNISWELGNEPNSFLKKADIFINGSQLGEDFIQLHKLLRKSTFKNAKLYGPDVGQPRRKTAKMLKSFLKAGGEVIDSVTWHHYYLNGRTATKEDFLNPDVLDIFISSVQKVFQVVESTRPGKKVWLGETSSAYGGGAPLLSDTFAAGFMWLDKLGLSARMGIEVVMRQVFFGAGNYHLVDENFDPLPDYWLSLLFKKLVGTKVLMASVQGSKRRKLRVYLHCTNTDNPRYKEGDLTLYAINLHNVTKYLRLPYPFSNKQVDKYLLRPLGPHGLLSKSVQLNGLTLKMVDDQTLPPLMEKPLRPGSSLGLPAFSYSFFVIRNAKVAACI
T1 sequence (Q9Y251 36-109 limits assumed): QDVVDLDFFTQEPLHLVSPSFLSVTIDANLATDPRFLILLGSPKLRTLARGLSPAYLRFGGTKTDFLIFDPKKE
Method: All compounds were tested in a simple, accurate and robust microplate assay based on the cleavage of the synthetic heparin fragment, the pentasaccharide Fondaparinux (AGA*IA). This assay was originally developed by Hammond and coworkers (Hammond E, Li CP, Ferro V. Development of a colorimetric assay for heparanase activity suitable for kinetic analysis and inhibitor screening. Anal. Biochem. 396(1), 112-116 (2010)), where Fondaparinux corresponds to the methyl glycoside of the antithrombin III (ATIII)-activating pentasaccharide sequence of heparin. Fondaparinux is cleaved by heparanase to generate a reducing disaccharide, which can be quantitatively measured via a colorimetric or a fluorescence assay, the last by the fluorescent sensor polymer-H [Schiemann S, Lühn S, Alban S. Development of both colorimetric and fluorescence heparinase activity assays using fondaparinux as substrate. Anal. Biochem. 427(1), 82-89 (2012)].
The assay measures the appearance of the disaccharide product of heparanase-catalyzed fondaparinux cleavage colorimetrically using the tetrazolium salt WST-1. Assay was essentially performed as described with minor modifications. Briefly, NUNC ELISA 96-well plates were pre-treated with a solution of 4% BSA (bovin serum albumin) in phosphate-buffered saline containing 0.05% Tween 20 (PBST), for 2 h at 37°C, then washed three times with PBST, dried by tapping on paper towel and stored at -20°C. Before use, once again, the plates were washed with PBST.
Assay was carried out with 100 µl/well of assay solution containing 40 mM sodium acetate buffer (pH 5.0), 100 µM fondaparinux, 2.5 nM heparanase and serial dilutions of test compounds (tested in triplicate). Plates were sealed with adhesive tape and incubated, in the dark, for 3 h at 37°C, followed by development with 1.69 mM of the tetrazolium salt WST-1 solution in 0.1 M NaOH, for 1 h at 60°C. Then, the absorbance at 560 nm was measured through a microplate reader (Victor 3, Perkin Elmer).
Finally, the measurements were corrected by subtracting both the reagent background and the inner absorbance value of test compound.

[4] = Table 1, range activity classes, AGA*IA test on Fondaparinux, read-out: AGAIA assay IC50
[5] = Table 2, classes as in Table 1, read-out: AGA*IA assay

Compound	EC50 [1] [µM]	EC50 [2] [µM]	EC50 [3] [µM]	IC50 (heparanase; AGA*IA screening, read-out: anti-heparanase activity) [µM]	IC50 (heparanase; [4]) [µM]	IC50 (heparanase; [5]) [µM]
Cn1cc(NC(=O)c2cccc(NC(=O)Nc3cccc(C(=O)Nc4cc(C(=O)Nc5cccc(CC(=O)N[C@@H](Cc6ccccc6)C(=O)O)c5)n(C)c4)c3)c2)cc1C(=O)Nc1cccc(CC(=O)N[C@@H](Cc2ccccc2)C(=O)O)c1 [Compound 12e, 2,2'-{carbonylbis[imino-3,1-phenylenecarbonylimino(1-methyl-1H-pyrrole-4,2-diyl)carbonylimino-3,1-phenylene(1-oxoethane-2,1-diyl)imino]}bis(3-phenylpropanoic acid)]	> 2.5	> 2.5	> 2.5	< 0.5	0.05 to 0.49	0.05 to 0.49
Cn1cc(NC(=O)Nc2cc(C(=O)Nc3cc(C(=O)Nc4cccc(CC(=O)O)c4)n(C)c3)n(C)c2)cc1C(=O)Nc1cc(C(=O)Nc2cccc(CC(=O)O)c2)n(C)c1 [Compound 17h, 2,2'-{carbonylbis[imino(1-methyl-1H-pyrrole-4,2-diyl)carbonylimino(1-methyl-1H-pyrrole-4,2-diyl)carbonylimino-3,1-phenylene]}diacetic acid]	> 2.5	> 2.5	> 2.5	–	0.5 to 0.99	0.5 to 0.99
Cn1cc(NC(=O)c2ccc(Oc3ccc(C(=O)Nc4cc(C(=O)Nc5cccc(CC(=O)N[C@@H](CCC(=O)O)C(=O)O)c5)n(C)c4)cc3)cc2)cc1C(=O)Nc1cccc(CC(=O)N[C@@H](CCC(=O)O)C(=O)O)c1 [Compound 36f, (2S,2'S)-2,2'-((2,2'-(((4,4'-((4,4'-Oxybis(benzoyl))bis(azanediyl))bis(1-methyl-1H-pyrrole-2,2'-carbonyl))bis(azanediyl))bis(3,1-phenylene))bis(acetyl))bis(azanediyl))dipentanedioic acid]	–	–	–	–	1 to 20	–
CC(C)C[C@H](NC(=O)Cc1cccc(NC(=O)c2cc(NC(=O)c3cc(NC(=O)Nc4cc(C(=O)Nc5cc(C(=O)Nc6cccc(CC(=O)N[C@@H](CC(C)C)B(O)O)c6)n(C)c5)n(C)c4)cn3C)cn2C)c1)B(O)O [Compound 41, ((1R,1'R)-((2,2'-(((4,4'-((4,4'-(carbonylbis(azanediyl))bis(1-methyl-1H-pyrrole-4,2-diyl-2-carbonyl))bis(azanediyl))bis(1-methyl-1H-pyrrole-4,2-diyl-2-carbonyl))bis(azanediyl))bis(3,1-phenylene))bis(acetyl))bis(azanediyl))bis(3-methylbutane-1,1-diyl))diboronic acid]	–	–	–	–	1 to 20	–
CC(C)C[C@H](NC(=O)Cc1cccc(NC(=O)c2cc(NC(=O)c3ccc(Oc4ccc(C(=O)Nc5cc(C(=O)Nc6cccc(CC(=O)N[C@@H](CC(C)C)B(O)O)c6)n(C)c5)cc4)cc3)cn2C)c1)B(O)O [Compound 42, ((1R,1'R)-((2,2'-(((4,4'-((4,4'-Oxybis(benzoyl))bis(azanediyl))bis(1-methyl-1H-pyrrole-2,2'-carbonyl))bis(azanediyl))bis(3,1-phenylene))bis(acetyl))bis(azanediyl))bis(3-methylbutane-1,1-diyl))diboronic acid]	–	–	–	–	1 to 20	–
CC(C)C[C@H](NC(=O)Cc1cccc(NC(=O)c2cc(NC(=O)c3cccc(NC(=O)Nc4cccc(C(=O)Nc5cc(C(=O)Nc6cccc(CC(=O)N[C@@H](CC(C)C)B(O)O)c6)n(C)c5)c4)c3)cn2C)c1)B(O)O [Compound 43, ((1R,1'R)-((2,2'-(((4,4'-((3,3'-(Carbonylbis(azanediyl))bis(benzoyl))bis(azanediyl))bis(1-methyl-1H-pyrrole-4,2-diyl-2-carbonyl))bis(azanediyl))bis(3,1-phenylene))bis(acetyl))bis(azanediyl))bis(3-methylbutane-1,1-diyl))diboronic acid]	–	–	–	–	1 to 20	–
CC(C)C[C@H](NC(=O)CNC(=O)Cc1cccc(NC(=O)c2cc(NC(=O)c3cc(NC(=O)Nc4cc(C(=O)Nc5cc(C(=O)Nc6cccc(CC(=O)NCC(=O)N[C@@H](CC(C)C)B(O)O)c6)n(C)c5)n(C)c4)cn3C)cn2C)c1)B(O)O [Compound 46, ((1R,1'R)-((2,2'-((2,2'-(((4,4'-((4,4'-(carbonylbis(azanediyl))bis(1-methyl-1H-pyrrole-4,2-diyl-2-carbonyl))bis(azanediyl))bis(1-methyl-1H-pyrrole-4,2-diyl-2-carbonyl))bis(azanediyl))bis(3,1-phenylene))bis(acetyl))bis(azanediyl))bis(acetyl))bis(azanediyl))bis(3-methylbutane-1,1-diyl))diboronic acid]	–	–	–	–	1 to 20	–
CC(C)C[C@H](NC(=O)CNC(=O)Cc1cccc(NC(=O)c2cc(NC(=O)c3cccc(NC(=O)Nc4cccc(C(=O)Nc5cc(C(=O)Nc6cccc(CC(=O)NCC(=O)N[C@@H](CC(C)C)B(O)O)c6)n(C)c5)c4)c3)cn2C)c1)B(O)O [Compound 47, ((1R,1'R)-((2,2'-((2,2'-(((4,4'-((3,3'-(Carbonylbis(azanediyl))bis(benzoyl))bis(azanediyl))bis(1-methyl-1H-pyrrole-4,2-diyl-2-carbonyl))bis(azanediyl))bis(3,1-phenylene))bis(acetyl))bis(azanediyl))bis(acetyl))bis(azanediyl))bis(3-methylbutane-1,1-diyl))diboronic acid]	–	–	–	–	1 to 20	–
